# In patent US20110086762A1, “4'4'-Dioxaspiro-Spirocyclically Substituted Tetramates” (Bayer CropScience AG, priority 2008, published 2011):
# Assays:
# Myzus persicae = Myzus persicae test MYZUPE (bell pepper plants); format: in vivo, green peach aphid (Myzus persicae)
# Protocol: (§1) Solvent: 7 parts by weight of dimethylformamide Emulsifier: 2 parts by weight of alkylaryl polyglycol ether To produce a suitable preparation of active compound, 1 part by weight of active compound is mixed with the stated amounts of solvent and emulsifier, and the concentrate is diluted with emulsifier-containing water to the desired concentration. If the addition of ammonium salts, penetrant or ammonium salts and penetrant is required, these are pipetted in at a concentration of 1000 ppm after dilution of the respective finished solution of the preparation. Bell pepper plants (Capsicum annuum) which are heavily infested by the green peach aphid (Myzus persicae) are treated by spraying with the active compound preparation of the desired concentration. After the desired period of time, the kill in % is determined. Here, 100% means that all of the animals have been killed; 0% means that none of the animals have been killed.
# Tetranychus urticae [1] = test: Tetranychus test, OP-resistant (bean plants); format: in vivo, greenhouse red spider mite (Tetranychus urticae); settings: TETRUR, active compound conc. 4 ppm
# Protocol: Solvent: 7 parts by weight of dimethylformamide Emulsifier: 2 parts by weight of alkylaryl polyglycol ether To produce a suitable preparation of active compound, 1 part by weight of active compound is mixed with the stated amounts of solvent and emulsifier, and the concentrate is diluted with emulsifier-containing water to the desired concentration. If the addition of ammonium salts, penetrant or ammonium salts and penetrant is required, these are pipetted in at a concentration of 1000 ppm after dilution of the respective finished solution of the preparation. Bean plants (Phaseolus vulgaris) which are heavily infested by all stages of the greenhouse red spider mite (Tetranychus urticae) are treated by spraying with the active compound preparation of the desired concentration. After the desired period of time, the effect in % is determined. Here, 100% means that all of the spider mites have been killed; 0% means that none of the spider mites have been killed.
# Aphis gossypii [2] = test: Aphis gossypii test, APHIGO spray treatment (cotton leaves); format: in vivo, cotton aphid (Aphis gossypii); settings: active compound conc. 0.8 ppm
# Protocol: as §1, with “the preparation. Cotton leaves (Gossypium hirsutum) which are” for “the preparation. Bell pepper plants (Capsicum annuum) which are”, “by the cotton aphid (Aphis” for “by the green peach aphid (Myzus”, “cotton aphid (Aphis gossypii) are sprayed” for “peach aphid (Myzus persicae) are treated”, “gossypii) are sprayed with an” for “persicae) are treated by spraying with the”, “sprayed with an active compound” for “spraying with the active compound”, “of the aphids have been” for “of the animals have been”
# [3] = Penetration of active compounds through enzymatically isolated cuticles of apple leaves; format: in vitro ADME, apple trees of the Golden Delicious variety; settings: apple leaf cuticles, 20° C., 60% rh, average of 8 to 10 measurements
# Text: Boosting of penetration into the plant by ammonium salts or phosphonium salts, and synergistic boosting of penetration into the plant by ammonium/phosphonium salts in combination with penetration promoters This test measured the penetration of active compounds through enzymatically isolated cuticles of apple leaves. The leaves used were cut in the fully developed state from apple trees of the Golden Delicious variety. The cuticles were isolated as follows: • first of all, leaf discs labelled on the underside with dye and formed by punching were filled by means of vacuum infiltration with a pectinase solution (0.2% to 2% strength) buffered to a pH of between 3 and 4, • sodium azide was then added and • the leaf discs thus treated were left to stand until the original leaf structure broke down and the non-cellular cuticle underwent detachment. After that, only those cuticles from the top leaf sides that were free from stomata and hairs were used further. They were washed a number of times in alternation with water and with a buffer solution, pH 7. […] Penetration was determined by applying 10 μl of the spray liquor of the composition below to the outer side of each of the cuticles. […] At regular intervals, samples were taken using an autosampler, and the amount of active compound was determined using HPLC. […]
# Aphis gossypii [4] = test: Example C-2: plot trial on cotton 'Fibermax' against Aphis gossypii; format: in vivo; settings: 105 g a.i./ha, standard (SC 050)
# Protocol: In plots of a size of 10 m^2, cotton plants of the cultivar “Fibermax” are treated in three replications against Aphis gossypii using a pressure-operated knapsack sprayer (2.5 bar). Here, the active compound A.5 is applied as SC050 and SL050 at the stated application rate in a tank mix of 1 g/l of ammonium sulphate and 1 g/l of a.i. rapeseed oil methyl ester EW 500 in comparison to the standard imidacloprid (SC 050) using an application rate of 300 l of water/ha. Evaluation is carried out 3, 6, 9, 13 and 17 days after the application by counting the number of live animals on the leaves. Subsequently, the efficacy in percent is calculated according to Henderson and Tilton.
# Tetranychus urticae [5] = test: Example C-3: plot trial on cotton 'Fibermax 977' against Tetranychus urticae; format: in vivo; settings: 9 g a.i./ha, standard (EC 018), two applications 8 days apart
# Protocol: In plots of a size of 15 m^2, cotton plants of the cultivar “Fibermax 977” are treated in three replications against Tetranychus urticae using a pressure-operated knapsack sprayer (4 bar). Here, the active compound A.5 is applied as SC050 and SL050 at the stated application rate in a tank mix of 1 g/l of ammonium sulphate and 1 g/l of a.i. rapeseed oil methyl ester EW 500 and the standard abamectin (EC 018) using an application rate of in each case 300 l of water/ha. Two applications are carried out at an interval of 8 days. Evaluation is carried out 3, 7, 11 and 15 days after the first application by scoring the kill of the spider mites on the leaves.
compound,measurement,setting,value
Cc1cc(C)c(C2=C(O)C3(CCC4(CC3)OCCO4)NC2=O)c(C)c1 [A.2],% effect after 7 d,Myzus persicae; active compound conc. 0.8 ppm,90%
same,% effect after 7 d,Tetranychus urticae [1],70%
Cc1cc(C)c(C2=C(O)C3(CCC4(CC3)OCCO4)NC2=O)c(C)c1 [A.3],% effect after 7 d,Myzus persicae; active compound conc. 0.8 ppm,75%
same,% effect after 7 d,Aphis gossypii [2],75%
Cc1cc(Cl)cc(C)c1C1=C(O)C2(CCC3(CC2)OCCO3)NC1=O [A.4],% effect after 7 d,Myzus persicae; active compound conc. 10 ppm,100%
Cc1cc(Cl)cc(C)c1C1=C(O)C2(CCC3(CC2)OCCO3)NC1=O [A.6],% effect after 7 d,Myzus persicae; active compound conc. 10 ppm,95%
"Cc1cc(Cl)cc(C)c1C1C(=O)NC2(CCC3(CC2)OCCO3)C1=O (stereo not shown) [Ex. I-1-a-4, 8,8′-ethylenedioxy-3-[(2,6-dimethyl-4-chloro)-phenyl]-1-azaspiro[4,5]-decane-2,4-dione]",% effect after 7 d,Myzus persicae; active compound conc. 10 ppm,75%
Cc1cc(C)c(C2=C(O)C3(CCC4(CC3)OCCO4)NC2=O)c(C)c1.[K+] [Example A.1],% effect after 7 d,Myzus persicae; active compound conc. 0.8 ppm,75%
Cc1cc(Cl)cc(C)c1C1=C(O)C2(CCC3(CC2)OCCO3)NC1=O [Example A.5],Penetration after 24 h,[3]; SC 050 + RME (1 g/l) + AS (1 g/l),3%
same,Penetration after 24 h,[3]; SL 050 + RME (1 g/l) + AS (1 g/l),7%
O=[N+]([O-])NC1=NCCN1Cc1ccc(Cl)nc1 [imidacloprid],Efficacy (% H + T) Aphis gossypii 3 d,Aphis gossypii [4]; 3 d,78.1%
same,Efficacy (% H + T) Aphis gossypii 6 d,Aphis gossypii [4]; 6 d,84.1%
same,Efficacy (% H + T) Aphis gossypii 9 d,Aphis gossypii [4]; 9 d,83.7%
same,Efficacy (% H + T) Aphis gossypii 13 d,Aphis gossypii [4]; 13 d,82.0%
same,Efficacy (% H + T) Aphis gossypii 17 d,Aphis gossypii [4]; 17 d,64.7%
abamectin,Effect Abbott (%) Tetranychus urticae 3 d,Tetranychus urticae [5]; 3 d after first application,49.3%
same,Effect Abbott (%) Tetranychus urticae 7 d,Tetranychus urticae [5]; 7 d after first application,27.2%
same,Effect Abbott (%) Tetranychus urticae 11 d,Tetranychus urticae [5]; 11 d after first application,5.8%
same,Effect Abbott (%) Tetranychus urticae 15 d,Tetranychus urticae [5]; 15 d after first application,40.7%
